From patent US12539292B2, “BRM targeting compounds and associated methods of use” (Arvinas Operations, Inc., priority 2018, dated 2026)

Biological target: T1, BRM (Homo sapiens, UniProt P51531)
T1 construct: In-Cell Western Screen of BRM Degradation in SW1573 Cells; endogenous in cells; host or cells: SW1573
Experiment: In-cell Western screen of BRM degradation in SW1573 cells (Dmax and DC50)
Format: cell-based
Conditions: BRM degradation, SW1573 cells; for DC50: read-out: DC50; for Dmax: read-out: Dmax (%) (% degraded)
Method in brief: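 SW1573 cells were treated with compound overnight (18-20 h; final DMSO 0.1%), then fixed in 4% PFA, permeabilized with Triton X-100 and blocked. BRM was detected by in-cell Western using 800 nm anti-rabbit and 680 nm anti-mouse secondaries, and Dmax and DC50 were derived from the LI-COR Odyssey signal.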

[1] = tested at the top concentration of between 0.3 and 10 μM

T1 sequence (P51531 whole entry): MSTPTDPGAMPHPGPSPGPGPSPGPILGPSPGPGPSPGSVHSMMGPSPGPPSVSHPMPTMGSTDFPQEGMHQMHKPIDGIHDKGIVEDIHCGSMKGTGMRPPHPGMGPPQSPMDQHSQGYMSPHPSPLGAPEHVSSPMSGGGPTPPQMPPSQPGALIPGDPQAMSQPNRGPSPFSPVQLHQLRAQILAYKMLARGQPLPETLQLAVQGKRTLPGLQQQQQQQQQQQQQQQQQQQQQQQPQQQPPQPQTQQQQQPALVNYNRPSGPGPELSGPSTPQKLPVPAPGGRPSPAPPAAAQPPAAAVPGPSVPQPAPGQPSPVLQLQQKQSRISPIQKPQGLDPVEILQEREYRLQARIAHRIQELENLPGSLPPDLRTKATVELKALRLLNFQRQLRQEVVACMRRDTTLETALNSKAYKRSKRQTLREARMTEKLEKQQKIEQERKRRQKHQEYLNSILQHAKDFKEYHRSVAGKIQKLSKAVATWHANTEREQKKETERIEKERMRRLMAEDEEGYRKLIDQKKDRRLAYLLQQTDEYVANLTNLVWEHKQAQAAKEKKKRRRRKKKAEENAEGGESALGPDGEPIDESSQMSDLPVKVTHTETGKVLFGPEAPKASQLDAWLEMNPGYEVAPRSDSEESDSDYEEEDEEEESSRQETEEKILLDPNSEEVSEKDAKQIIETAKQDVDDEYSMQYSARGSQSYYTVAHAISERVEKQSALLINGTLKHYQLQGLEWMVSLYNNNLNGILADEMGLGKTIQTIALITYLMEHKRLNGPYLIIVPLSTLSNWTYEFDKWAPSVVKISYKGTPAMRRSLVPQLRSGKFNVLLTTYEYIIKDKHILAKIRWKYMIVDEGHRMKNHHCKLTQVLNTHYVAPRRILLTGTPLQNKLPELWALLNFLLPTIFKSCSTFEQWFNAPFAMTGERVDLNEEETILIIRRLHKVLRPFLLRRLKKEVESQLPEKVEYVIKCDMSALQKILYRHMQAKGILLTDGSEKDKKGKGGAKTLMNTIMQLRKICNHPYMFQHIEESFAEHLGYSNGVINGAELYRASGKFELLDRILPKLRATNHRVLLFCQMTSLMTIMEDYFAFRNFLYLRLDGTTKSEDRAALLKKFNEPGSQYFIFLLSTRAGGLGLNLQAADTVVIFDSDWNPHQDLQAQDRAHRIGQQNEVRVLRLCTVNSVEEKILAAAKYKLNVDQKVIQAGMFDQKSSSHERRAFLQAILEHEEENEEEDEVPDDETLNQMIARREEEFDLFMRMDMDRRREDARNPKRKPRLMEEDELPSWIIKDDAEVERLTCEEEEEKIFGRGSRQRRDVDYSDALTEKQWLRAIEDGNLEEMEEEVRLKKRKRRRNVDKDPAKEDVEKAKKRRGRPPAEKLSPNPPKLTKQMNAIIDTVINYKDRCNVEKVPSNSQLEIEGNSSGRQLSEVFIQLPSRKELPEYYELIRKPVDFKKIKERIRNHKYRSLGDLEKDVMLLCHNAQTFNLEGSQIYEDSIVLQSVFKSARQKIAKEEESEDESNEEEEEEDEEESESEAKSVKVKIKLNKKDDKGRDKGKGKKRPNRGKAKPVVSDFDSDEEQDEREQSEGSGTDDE

Structure (SMILES) | DC50 [nM] | Dmax (%) (% degraded) [1] | Dmax [1] [%]
Cc1ncsc1-c1ccc([C@H](C)NC(=O)[C@@H]2C[C@@H](O)CN2C(=O)[C@@H](c2cc(OCCC#Cc3ccc(OC4CC(Oc5cc(N6C7CC[C@@H]6CN(c6cc(-c8ccccc8O)nnc6N)C7)ccn5)C4)cn3)no2)C(C)C)cc1 (stereo partly drawn) [compound 227, (2S,4R)-1-((2R)-2-(3-((4-(5-((1r,3r)-3-((4-(3-(3-amino-6-(2-hydroxyphenyl)pyridazin-4-yl)-3,8-diazabicyclo[3.2.1]octan-8-yl)pyridin-2-yl)oxy)cyclobutoxy)pyridin-2-yl)but-3-yn-1-yl)oxy)isoxazol-5-yl)-3-methylbutanoyl)-4-hydroxy-N-((S)-1-(4-(4-methylthiazol-5-yl)phenyl)ethyl)pyrrolidine-2-carboxamide] | < 2.5 | A (A > 75) | –
Cc1ncsc1-c1ccc(C2(NC(=O)[C@@H]3C[C@@H](O)CN3C(=O)[C@H](c3cc(OCCN4CCN(CCOc5cc(N6C7CCC6CN(c6cc(-c8ccccc8O)nnc6N)C7)ccn5)CC4)no3)C(C)C)CN(C)C2)cc1 [compound 228, (2S,4R)-1-((2S)-2-(3-(2-(4-(2-((4-(3-(3-amino-6-(2-hydroxyphenyl)pyridazin-4-yl)-3,8-diazabicyclo[3.2.1]octan-8-yl)pyridin-2-yl)oxy)ethyl)piperazin-1-yl)ethoxy)isoxazol-5-yl)-3-methylbutanoyl)-4-hydroxy-N-(1-methyl-3-(4-(4-methylthiazol-5-yl)phenyl)azetidin-3-yl)pyrrolidine-2-carboxamide] | > 30 | – | –
Cc1ncoc1-c1ccc([C@H](C)NC(=O)[C@@H]2C[C@@H](O)CN2C(=O)[C@H](c2cc(OCCN3CCC(O[C@H]4C[C@H](Oc5cc(N6C7CCC6CN(c6cc(-c8ccccc8O)nnc6N)C7)ccn5)C4)CC3)no2)C(C)C)cn1 [compound 229, (2S,4R)-1-((2S)-2-(3-(2-(4-((1r,3S)-3-((4-(3-(3-amino-6-(2-hydroxyphenyl)pyridazin-4-yl)-3,8-diazabicyclo[3.2.1]octan-8-yl)pyridin-2-yl)oxy)cyclobutoxy)piperidin-1-yl)ethoxy)isoxazol-5-yl)-3-methylbutanoyl)-4-hydroxy-N-((S)-1-(6-(4-methyloxazol-5-yl)pyridin-3-yl)ethyl)pyrrolidine-2-carboxamide] | > 30 | – | –
Cc1ncoc1-c1ccc([C@H](C)NC(=O)[C@@H]2C[C@@H](O)CN2C(=O)[C@@H](c2cc(OCCN3CCC(O[C@H]4C[C@H](Oc5cc(N6C7CCC6CN(c6cc(-c8ccccc8O)nnc6N)C7)ccn5)C4)CC3)no2)C(C)C)cn1 [compound 230, (2S,4R)-1-((2R)-2-(3-(2-(4-((1r,3R)-3-((4-(3-(3-amino-6-(2-hydroxyphenyl)pyridazin-4-yl)-3,8-diazabicyclo[3.2.1]octan-8-yl)pyridin-2-yl)oxy)cyclobutoxy)piperidin-1-yl)ethoxy)isoxazol-5-yl)-3-methylbutanoyl)-4-hydroxy-N-((S)-1-(6-(4-methyloxazol-5-yl)pyridin-3-yl)ethyl)pyrrolidine-2-carboxamide] | < 2.5 | – | > 75
Cc1ncsc1-c1ccc([C@H](C)NC(=O)[C@@H]2C[C@@H](O)CN2C(=O)[C@H](c2cc(OCC#Cc3ncc(O[C@H]4C[C@H](Oc5cc(N6C7CCC6CN(c6cc(-c8ccccc8O)nnc6N)C7)ccn5)C4)cn3)no2)C(C)C)cc1 [compound 231, (2S,4R)-1-((2S)-2-(3-((3-(5-((1r,3S)-3-((4-(3-(3-amino-6-(2-hydroxyphenyl)pyridazin-4-yl)-3,8-diazabicyclo[3.2.1]octan-8-yl)pyridin-2-yl)oxy)cyclobutoxy)pyrimidin-2-yl)prop-2-yn-1-yl)oxy)isoxazol-5-yl)-3-methylbutanoyl)-4-hydroxy-N-((S)-1-(4-(4-methylthiazol-5-yl)phenyl)ethyl)pyrrolidine-2-carboxamide] | < 2.5 | – | > 75
Cc1ncsc1-c1ccc([C@H](C)NC(=O)[C@@H]2C[C@@H](O)CN2C(=O)[C@@H](c2cc(OCC#Cc3ncc(O[C@H]4C[C@H](Oc5cc(N6C7CCC6CN(c6cc(-c8ccccc8O)nnc6N)C7)ccn5)C4)cn3)no2)C(C)C)cc1 [compound 232, (2S,4R)-1-((2R)-2-(3-((3-(5-((1r,3R)-3-((4-(3-(3-amino-6-(2-hydroxyphenyl)pyridazin-4-yl)-3,8-diazabicyclo[3.2.1]octan-8-yl)pyridin-2-yl)oxy)cyclobutoxy)pyrimidin-2-yl)prop-2-yn-1-yl)oxy)isoxazol-5-yl)-3-methylbutanoyl)-4-hydroxy-N-((S)-1-(4-(4-methylthiazol-5-yl)phenyl)ethyl)pyrrolidine-2-carboxamide] | < 2.5 | – | > 75
Cc1nccn1-c1ccc([C@H](C)NC(=O)[C@@H]2C[C@@H](O)CN2C(=O)[C@H](c2cc(OCC#Cc3ccc(O[C@H]4C[C@H](Oc5cc(N6C7CCC6CN(c6cc(-c8ccccc8O)nnc6N)C7)ccn5)C4)cn3)no2)C(C)C)cc1 [compound 233, (2S,4R)-1-((2S)-2-(3-((3-(5-((1r,3S)-3-((4-(3-(3-amino-6-(2-hydroxyphenyl)pyridazin-4-yl)-3,8-diazabicyclo[3.2.1]octan-8-yl)pyridin-2-yl)oxy)cyclobutoxy)pyridin-2-yl)prop-2-yn-1-yl)oxy)isoxazol-5-yl)-3-methylbutanoyl)-4-hydroxy-N-((S)-1-(4-(2-methyl-1H-imidazol-1-yl)phenyl)ethyl)pyrrolidine-2-carboxamide] | 10 to 30 | – | > 75
Cc1nccn1-c1ccc([C@H](C)NC(=O)[C@@H]2C[C@@H](O)CN2C(=O)[C@@H](c2cc(OCC#Cc3ccc(O[C@H]4C[C@H](Oc5cc(N6C7CCC6CN(c6cc(-c8ccccc8O)nnc6N)C7)ccn5)C4)cn3)no2)C(C)C)cc1 [compound 234, (2S,4R)-1-((2R)-2-(3-((3-(5-((1r,3R)-3-((4-(3-(3-amino-6-(2-hydroxyphenyl)pyridazin-4-yl)-3,8-diazabicyclo[3.2.1]octan-8-yl)pyridin-2-yl)oxy)cyclobutoxy)pyridin-2-yl)prop-2-yn-1-yl)oxy)isoxazol-5-yl)-3-methylbutanoyl)-4-hydroxy-N-((S)-1-(4-(2-methyl-1H-imidazol-1-yl)phenyl)ethyl)pyrrolidine-2-carboxamide] | < 2.5 | – | > 75
CC(=O)N1CC(NC(=O)[C@@H]2C[C@@H](O)CN2C(=O)[C@H](c2cc(OCCN3CCN(CCOc4cc(N5C6CCC5CN(c5cc(-c7ccccc7O)nnc5N)C6)ccn4)CC3)no2)C(C)C)(c2ccc(-c3scnc3C)cc2)C1 [compound 235, (2S,4R)-N-(1-acetyl-3-(4-(4-methylthiazol-5-yl)phenyl)azetidin-3-yl)-1-((2S)-2-(3-(2-(4-(2-((4-(3-(3-amino-6-(2-hydroxyphenyl)pyridazin-4-yl)-3,8-diazabicyclo[3.2.1]octan-8-yl)pyridin-2-yl)oxy)ethyl)piperazin-1-yl)ethoxy)isoxazol-5-yl)-3-methylbutanoyl)-4-hydroxypyrrolidine-2-carboxamide] | > 30 | – | –
Cc1ncsc1-c1ccc([C@H](C)NC(=O)[C@@H]2C[C@@H](O)CN2C(=O)[C@H](c2cc(OCC#Cc3ccc(O[C@H]4C[C@H](Oc5cc(N6C7CCC6CN(c6cc(-c8ccccc8O)nnc6N)C7)ccn5)C4)cn3)no2)C(C)C)cn1 [compound 236, (2S,4R)-1-((2S)-2-(3-((3-(5-((1r,3S)-3-((4-(3-(3-amino-6-(2-hydroxyphenyl)pyridazin-4-yl)-3,8-diazabicyclo[3.2.1]octan-8-yl)pyridin-2-yl)oxy)cyclobutoxy)pyridin-2-yl)prop-2-yn-1-yl)oxy)isoxazol-5-yl)-3-methylbutanoyl)-4-hydroxy-N-((S)-1-(6-(4-methylthiazol-5-yl)pyridin-3-yl)ethyl)pyrrolidine-2-carboxamide] | > 30 | – | > 75
Cc1ncsc1-c1ccc([C@H](C)NC(=O)[C@@H]2C[C@@H](O)CN2C(=O)[C@@H](c2cc(OCC#Cc3ccc(O[C@H]4C[C@H](Oc5cc(N6C7CCC6CN(c6cc(-c8ccccc8O)nnc6N)C7)ccn5)C4)cn3)no2)C(C)C)cn1 [compound 237, (2S,4R)-1-((2R)-2-(3-((3-(5-((1r,3R)-3-((4-(3-(3-amino-6-(2-hydroxyphenyl)pyridazin-4-yl)-3,8-diazabicyclo[3.2.1]octan-8-yl)pyridin-2-yl)oxy)cyclobutoxy)pyridin-2-yl)prop-2-yn-1-yl)oxy)isoxazol-5-yl)-3-methylbutanoyl)-4-hydroxy-N-((S)-1-(6-(4-methylthiazol-5-yl)pyridin-3-yl)ethyl)pyrrolidine-2-carboxamide] | < 2.5 | – | > 75
Cc1ncsc1-c1ccc([C@H](C)NC(=O)[C@@H]2C[C@@H](O)CN2C(=O)[C@@H](c2cc(OCCN3CCC(O[C@H]4C[C@H](C#CCn5cc(-c6cc(-c7ccccc7O)nnc6N)cn5)C4)CC3)no2)C(C)C)cc1 [compound 238, (2S,4R)-1-((R)-2-(3-(2-(4-((1r,3R)-3-(3-(4-(3-amino-6-(2-hydroxyphenyl)pyridazin-4-yl)-1H-pyrazol-1-yl)prop-1-yn-1-yl)cyclobutoxy)piperidin-1-yl)ethoxy)isoxazol-5-yl)-3-methylbutanoyl)-4-hydroxy-N-((S)-1-(4-(4-methylthiazol-5-yl)phenyl)ethyl)pyrrolidine-2-carboxamide] | < 2.5 | – | > 75
Cc1ncsc1-c1ccc([C@H](C)NC(=O)[C@@H]2C[C@@H](O)CN2C(=O)[C@H](c2cc(OCCN3CCC(O[C@H]4C[C@H](Oc5cc(N6C7CCC6CN(c6cc(-c8ccccc8O)nnc6N)C7)ccn5)C4)CC3)no2)C(C)C)c(F)c1 [compound 239, (2S,4R)-1-((2S)-2-(3-(2-(4-((1r,3S)-3-((4-(3-(3-amino-6-(2-hydroxyphenyl)pyridazin-4-yl)-3,8-diazabicyclo[3.2.1]octan-8-yl)pyridin-2-yl)oxy)cyclobutoxy)piperidin-1-yl)ethoxy)isoxazol-5-yl)-3-methylbutanoyl)-N-((S)-1-(2-fluoro-4-(4-methylthiazol-5-yl)phenyl)ethyl)-4-hydroxypyrrolidine-2-carboxamide] | > 30 | – | > 75
